# From patent US20110053225A1, “MULTI[…]” (GE […]-SCIENCES AB, priority 2008, published 2011)
# Columns and labels:
# Assay in all cases: Cu(II)-VBIDA affinity for the tag (Table 1)
# Type in all cases: binding
# Conditions in all cases: r^2 ≈ 0.98
# [1] = molecular target: green fluorescent protein (GFP) variant GFP28, tag MEFHITGHH, SEQ ID NO: 11
# Description: (§1) In this figure the kD data is given in millimolar not micromolar units.
# [2] = molecular target: green fluorescent protein (GFP), n-GFP (native, N-terminus MEFELGT, SEQ ID NO: 1)
# Description: as §1
# [3] = molecular target: green fluorescent protein (GFP) variant GFP2, tag MEFHSVGMH, SEQ ID NO: 3
# Description: as §1
# [4] = molecular target: green fluorescent protein (GFP) variant GFP24, tag MEFHLRARH, SEQ ID NO: 7
# Description: as §1
# [5] = molecular target: green fluorescent protein (GFP) variant GFP29, tag MEFHHSLVH, SEQ ID NO: 12
# Description: as §1
# [6] = molecular target: green fluorescent protein (GFP) variant GFP12, tag MEFHSVGLH, SEQ ID NO: 6
# Description: as §1
# [7] = molecular target: green fluorescent protein (GFP) variant GFP27, tag MEFHWVARH, SEQ ID NO: 10
# Description: as §1
# (§2) These values are suitably low for such tags to be used in a separation process with binding of target at high enough affinity to allow for ease of washing and recovery.
# [8] = molecular target: green fluorescent protein (GFP) variant GFP25, tag MEFHRPMRH, SEQ ID NO: 8
# Description: as §1, §2
# [9] = molecular target: green fluorescent protein (GFP), 6His-GFP, tag […], SEQ ID NO: 14
# Description: as §1, §2
# [10] = molecular target: green fluorescent protein (GFP) variant GFP30, tag MEFHAHHLH, SEQ ID NO: 13
# Description: as §1, §2
smiles,measurement,setting,value
"C=Cc1ccc(CN(CC(=O)O)CC(=O)O)cc1.[Cu+2] [Cu(II)-VBIDA, N-(4-vinyl)-benzyl iminodiacetic acid]",Kd,[1],110 µM
same,Kd,[2],1680 µM
same,Kd,[3],1200 µM
same,Kd,[4],150 µM
same,Kd,[5],100 µM
same,Kd,[6],200 µM
same,Kd,[7],120 µM
same,Kd,[8],140 µM
same,Kd,[9],70 µM
same,Kd,[10],90 µM
